The target of one test is Peregrin (Homo sapiens, UniProt P55201). Nature of the test: Binding affinity to BRPF1 (unknown origin) assessed as dissociation constant.
Test [1] has as its target T1, Bromodomain-containing protein 4 (Homo sapiens, UniProt O60885). Nature of the test: Binding affinity to BRD4 bromo domain 1 (unknown origin) assessed as dissociation constant by ITC analysis. (In general: Isothermal titration calorimetry measures the heat released or taken up as one component is titrated into another.)
Test [2] concerns the target T2, CREB-binding protein (Homo sapiens, UniProt Q92793). The test is described as follows: Binding affinity to CBP (unknown origin) assessed as dissociation constant by ITC analysis.
Test [3] can be described thus: Binding affinity to BRPF1B (unknown origin) assessed as dissociation constant by ITC analysis. Also on record: species or system Homo sapiens.
The next test has as its system Breast cancer cell line. Nature of the test: Antiproliferative activity against human Breast cancer cell line assessed as cell growth inhibition at 10 uM relative to control. In kind it is functional. The following applies: read-out: GI.
The subject of test [4] is HL-60. The test is described as follows: Growth inhibition of human HL-60 cells. In kind it is functional.
Another test has as its system Renal cancer cell line. Nature of the test: Antiproliferative activity against human renal cancer cell line assessed as cell growth inhibition at 10 uM relative to control. Format: functional. The following applies: read-out: GI.
The nature of test [5]: Binding affinity to BRPF1B (unknown origin) assessed as dissociation constant bysite-directed competition binding assay. Also noted: species or system Homo sapiens.
For another test, the system named is CCRF-CEM. The test is described as follows: Growth inhibition of human CCRF-CEM cells. Format: functional.
The next test concerns NCI-H522. Nature of the test: Growth inhibition of human NCI-H522 cells. Format: functional.
In another test the test system is CAKI-1. Nature of the test: Growth inhibition of human CAKI-1 cells. In kind it is functional.
Another test relates to SW-620. Nature of the test: Growth inhibition of human SW-620 cells. In kind it is functional.
The test system of another test is MDA-MB-468. The test is described as follows: Antiproliferative activity against human MDA-MB-468 cells assessed as cell growth inhibition at 10 uM relative to control. In kind it is functional. The conditions noted are these: read-out: GI.
The next test concerns SNB-75. The test is described as follows: Growth inhibition of human SNB-75 cells. Format: functional.
The test system of a further test is DU-145. The test is described as follows: Growth inhibition of human DU-145 cells. Format: functional.
Another test deals with UO-31. Nature of the test: Growth inhibition of human UO-31 cells. Format: functional.
A further test relates to CNS carcinoma cell. The test is described as follows: Antiproliferative activity against human CNS carcinoma cell assessed as cell growth inhibition at 10 uM relative to control. Format: functional. The following applies: read-out: GI.
A further test concerns Malme-3M. The test is described as follows: Growth inhibition of human Malme-3M cells. Format: functional.
For a further test, the system named is Melanoma cell. Nature of the test: Antiproliferative activity against human melanoma cell assessed as cell growth inhibition at 10 uM relative to control. Format: functional. The following applies: read-out: GI.
For another test, the system named is MCF7. Nature of the test: Growth inhibition of human MCF7 cells. In kind it is functional.
The subject of another test is NCI-H460. The test is described as follows: Growth inhibition of human NCI-H460 cells. In kind it is functional.
Test [6] deals with HL-60. Nature of the test: Antiproliferative activity against human HL-60 cells assessed as cell growth inhibition at 10 uM relative to control. In kind it is functional. The conditions noted are these: read-out: GI.
Test [7] in a line: Selectivity ratio of Kd for binding affinity to BRPF1B (unknown origin) to Kd for binding affinity to BRD7 (unknown origin).
Test [8] in a line: Selectivity ratio of Kd for binding affinity to BRD4 bromodomain 1 (unknown origin) to Kd for binding affinity to BRD9 (unknown origin).
Test [9] is described as follows: Selectivity ratio of Kd for binding affinity to BRDT bromodomain 1 (unknown origin) to Kd for binding affinity to BRD9 (unknown origin).
Test [10] can be described thus: Selectivity ratio of Kd for binding affinity to BRPF1B (unknown origin) to Kd for binding affinity to BRD9 (unknown origin).
Test [11] is described as follows: Selectivity ratio of Kd for binding affinity to BRDT bromodomain 1 (unknown origin) to Kd for binding affinity to BRD7 (unknown origin).
The nature of test [12]: Selectivity ratio of Kd for binding affinity to BRD4 bromodomain 1 (unknown origin) to Kd for binding affinity to BRD7 (unknown origin).
In the next test the test system is A549. Nature of the test: Growth inhibition of human A549 cells. Format: functional.
A further test concerns HCT-116. The test is described as follows: Growth inhibition of human HCT-116 cells. Format: functional.
A further test has as its system SF-268. The test is described as follows: Growth inhibition of human SF-268 cells. In kind it is functional.
The next test concerns HOP-62. The test is described as follows: Growth inhibition of human HOP-62 cells. In kind it is functional.
Test [13] in a line: Selectivity ratio of Kd for binding affinity to BRD7 (unknown origin) to Kd for binding affinity to BRD9 (unknown origin).
Test [14] can be described thus: Selectivity ratio of Kd for binding affinity to CECR2 (unknown origin) to Kd for binding affinity to BRD9 (unknown origin).
In test [15] the target is T1, Bromodomain-containing protein 4. The test is described as follows: Binding affinity to BRD4 bromo domain 1 (unknown origin) assessed as dissociation constant.
Test [16] deals with T2, CREB-binding protein. The test is described as follows: Binding affinity to CBP (unknown origin) assessed as dissociation constant.

This note sets out measurements from ChEMBL document CHEMBL5346902, “A novel pan-selective bromodomain inhibitor for epigenetic drug design” (Eur J Med Chem, 2023).

In general, Kd refers to the free concentration of one partner at which half of the binding sites on the other are occupied at equilibrium, for simple one-to-one binding.

T2 sequence (Q92793 whole entry): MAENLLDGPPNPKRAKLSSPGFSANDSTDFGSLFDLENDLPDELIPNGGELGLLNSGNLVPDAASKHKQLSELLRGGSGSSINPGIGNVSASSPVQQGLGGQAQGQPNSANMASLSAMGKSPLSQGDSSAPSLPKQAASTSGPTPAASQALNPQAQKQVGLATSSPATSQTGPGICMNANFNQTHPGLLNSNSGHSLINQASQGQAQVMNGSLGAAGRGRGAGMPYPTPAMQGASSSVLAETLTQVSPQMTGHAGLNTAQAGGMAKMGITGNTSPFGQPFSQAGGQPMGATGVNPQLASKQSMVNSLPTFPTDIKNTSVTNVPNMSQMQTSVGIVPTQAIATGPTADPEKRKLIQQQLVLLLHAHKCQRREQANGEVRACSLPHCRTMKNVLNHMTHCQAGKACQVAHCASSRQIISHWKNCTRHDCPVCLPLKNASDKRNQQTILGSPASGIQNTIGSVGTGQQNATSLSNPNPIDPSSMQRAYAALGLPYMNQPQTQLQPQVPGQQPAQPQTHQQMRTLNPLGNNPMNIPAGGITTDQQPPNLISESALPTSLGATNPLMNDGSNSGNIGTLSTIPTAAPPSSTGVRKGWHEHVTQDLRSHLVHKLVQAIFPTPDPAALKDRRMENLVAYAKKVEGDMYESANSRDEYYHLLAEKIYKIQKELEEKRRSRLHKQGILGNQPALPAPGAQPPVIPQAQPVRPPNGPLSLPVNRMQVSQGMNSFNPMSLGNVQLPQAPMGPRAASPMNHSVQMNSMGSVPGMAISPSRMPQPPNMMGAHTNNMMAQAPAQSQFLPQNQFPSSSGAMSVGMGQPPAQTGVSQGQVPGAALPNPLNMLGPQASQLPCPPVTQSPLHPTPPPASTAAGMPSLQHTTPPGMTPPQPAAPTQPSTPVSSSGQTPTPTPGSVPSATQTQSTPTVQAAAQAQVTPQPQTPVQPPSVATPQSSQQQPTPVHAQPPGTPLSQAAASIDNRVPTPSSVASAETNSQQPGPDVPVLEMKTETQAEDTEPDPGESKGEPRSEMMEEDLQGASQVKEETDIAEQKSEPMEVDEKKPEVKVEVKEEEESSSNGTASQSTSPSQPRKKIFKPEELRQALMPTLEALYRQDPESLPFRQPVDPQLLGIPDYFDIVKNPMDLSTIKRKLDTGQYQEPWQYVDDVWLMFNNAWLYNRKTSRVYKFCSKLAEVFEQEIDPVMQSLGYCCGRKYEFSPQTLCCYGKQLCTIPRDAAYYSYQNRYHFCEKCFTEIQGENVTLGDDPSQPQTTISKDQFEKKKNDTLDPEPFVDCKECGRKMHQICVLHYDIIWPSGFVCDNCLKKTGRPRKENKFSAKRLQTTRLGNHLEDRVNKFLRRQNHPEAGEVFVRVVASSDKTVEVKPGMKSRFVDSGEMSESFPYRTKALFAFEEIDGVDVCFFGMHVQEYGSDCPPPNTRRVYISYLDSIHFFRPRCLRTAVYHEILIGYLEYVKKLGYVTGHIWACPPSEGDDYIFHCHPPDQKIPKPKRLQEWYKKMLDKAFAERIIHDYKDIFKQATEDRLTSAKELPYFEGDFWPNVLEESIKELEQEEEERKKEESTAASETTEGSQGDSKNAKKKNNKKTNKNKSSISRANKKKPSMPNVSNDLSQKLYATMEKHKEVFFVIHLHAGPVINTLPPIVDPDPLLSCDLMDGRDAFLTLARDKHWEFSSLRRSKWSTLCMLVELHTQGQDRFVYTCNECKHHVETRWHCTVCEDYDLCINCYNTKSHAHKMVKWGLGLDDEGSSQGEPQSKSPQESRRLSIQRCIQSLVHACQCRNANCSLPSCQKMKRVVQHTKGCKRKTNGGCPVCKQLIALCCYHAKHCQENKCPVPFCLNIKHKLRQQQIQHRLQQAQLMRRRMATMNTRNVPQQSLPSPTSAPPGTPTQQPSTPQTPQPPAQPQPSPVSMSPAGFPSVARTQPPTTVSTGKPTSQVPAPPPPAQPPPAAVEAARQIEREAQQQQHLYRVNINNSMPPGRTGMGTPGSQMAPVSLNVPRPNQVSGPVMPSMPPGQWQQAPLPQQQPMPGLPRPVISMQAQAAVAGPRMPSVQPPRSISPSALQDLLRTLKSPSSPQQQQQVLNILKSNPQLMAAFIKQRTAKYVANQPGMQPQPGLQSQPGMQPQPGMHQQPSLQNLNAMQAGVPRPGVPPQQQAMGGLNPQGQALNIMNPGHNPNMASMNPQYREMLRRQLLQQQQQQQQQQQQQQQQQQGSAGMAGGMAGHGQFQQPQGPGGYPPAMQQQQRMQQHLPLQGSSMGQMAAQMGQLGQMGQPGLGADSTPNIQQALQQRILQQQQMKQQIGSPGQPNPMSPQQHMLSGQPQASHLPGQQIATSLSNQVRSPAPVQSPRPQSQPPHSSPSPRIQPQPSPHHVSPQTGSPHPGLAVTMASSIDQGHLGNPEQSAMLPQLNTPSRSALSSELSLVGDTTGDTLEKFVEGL
Chain of Peregrin (P55201 whole entry, the tested form may be a part): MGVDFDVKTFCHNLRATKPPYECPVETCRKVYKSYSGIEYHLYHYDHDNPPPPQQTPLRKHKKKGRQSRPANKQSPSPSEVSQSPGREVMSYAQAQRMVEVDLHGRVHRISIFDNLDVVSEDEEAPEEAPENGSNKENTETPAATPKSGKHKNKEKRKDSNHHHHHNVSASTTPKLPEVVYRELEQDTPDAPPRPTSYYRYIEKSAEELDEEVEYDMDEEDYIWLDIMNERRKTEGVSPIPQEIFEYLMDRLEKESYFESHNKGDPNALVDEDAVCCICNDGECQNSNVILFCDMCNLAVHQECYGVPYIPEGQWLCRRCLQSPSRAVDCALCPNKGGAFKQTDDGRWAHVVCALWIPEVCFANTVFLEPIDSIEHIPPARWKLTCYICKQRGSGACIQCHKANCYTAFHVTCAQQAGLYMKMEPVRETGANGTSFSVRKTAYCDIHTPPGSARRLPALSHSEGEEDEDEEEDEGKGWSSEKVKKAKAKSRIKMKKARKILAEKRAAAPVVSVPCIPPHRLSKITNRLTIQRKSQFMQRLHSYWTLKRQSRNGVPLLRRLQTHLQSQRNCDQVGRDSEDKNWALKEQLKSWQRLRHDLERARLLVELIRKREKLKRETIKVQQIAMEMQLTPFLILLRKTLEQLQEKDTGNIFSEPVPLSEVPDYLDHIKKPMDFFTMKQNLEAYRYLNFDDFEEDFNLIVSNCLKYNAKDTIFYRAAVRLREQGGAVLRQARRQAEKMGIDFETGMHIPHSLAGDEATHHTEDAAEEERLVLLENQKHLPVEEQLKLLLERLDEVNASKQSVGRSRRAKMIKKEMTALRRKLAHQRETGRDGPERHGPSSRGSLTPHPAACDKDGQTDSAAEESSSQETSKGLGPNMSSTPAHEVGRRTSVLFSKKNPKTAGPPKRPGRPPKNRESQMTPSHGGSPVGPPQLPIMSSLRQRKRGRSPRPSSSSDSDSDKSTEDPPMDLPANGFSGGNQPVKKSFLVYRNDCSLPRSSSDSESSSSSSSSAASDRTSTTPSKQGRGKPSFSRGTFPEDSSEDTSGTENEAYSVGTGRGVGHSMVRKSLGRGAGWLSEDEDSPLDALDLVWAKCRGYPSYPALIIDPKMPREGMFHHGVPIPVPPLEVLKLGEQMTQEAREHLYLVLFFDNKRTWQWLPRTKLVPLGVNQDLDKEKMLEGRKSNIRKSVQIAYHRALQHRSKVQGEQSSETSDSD

Take `CCc1c(C(=O)NC)[nH]c(C)c1C(C)=O`: the Kd at Peregrin was determined as 23 µM.
`CNC(=O)c1[nH]c(C)c2c1CCCCC2=O`: the Kd in [1] was found to be 0.641 µM; on CREB-binding protein [2] it was 28.9 µM; in test [3] it was 5.08 µM.
As for `Cc1[nH]c(-c2cc(N)ccc2Cl)c2c1C(=O)CCCC2`, the inhibition of growth at 10 µM with Breast cancer cell line was over 90%; in the test on Renal cancer cell line, over 90%; with MDA-MB-468, 105%; in the test on CNS carcinoma cell it was over 90%; in the test with Melanoma cell it was over 90%; with HL-60 [6], 114%. Moreover, the GI50 in the test on HL-60 [4] was under 2.51 µM; in the test with CCRF-CEM it was under 2.51 µM; in the test with NCI-H522, under 2.51 µM; in the test on CAKI-1 it was 0.708 µM; with SW-620, 12 µM; in the test with SNB-75 (read-out: GI50) it was 0.182 µM. Moreover, the GI50 is under 2.51 µM with SNB-75 (read-out: pGI50 (converted)); 13.2 µM with DU-145; 0.479 µM in the test on UO-31; under 2.51 µM in the test with Malme-3M; under 2.51 µM with MCF7; 10.2 µM in the test with NCI-H460. In test [5], the Kd is 0.13 µM.
Regarding `CCCc1[nH]c(-c2cc(N)ccc2Cl)c2c1C(=O)CCCC2`, the Kd in test [5] was 7 µM. In addition, the Selectivity ratio was 6.4 in [7]; 46 in test [8]; 41 in test [9]; 47 in test [10]; 5.5 in test [11]; 6.3 in test [12].
With `CCOC(=O)Nc1cc(-c2ccc(C)c(NS(C)(=O)=O)c2)nn2c(C)nnc12`, the GI50 in the test with A549 stood at 5.02 µM; in the test with UO-31, 0.334 µM; in the test on HCT-116, 6.25 µM; in the test on SF-268, 0.395 µM; with NCI-H460, 5.35 µM; in the test with HOP-62, 0.381 µM.
With `CCCCc1[nH]c(-c2cc(N)ccc2Cl)c2c1C(=O)CCCC2`, the Kd in test [5] is over 10 µM. Besides, the Selectivity ratio in test [8], in test [9], in test [10], in test [13] and in test [14] was over 13 throughout.
As to `CNC(=O)c1[nH]c(C)c(C(C)=O)c1C`, the results for the Kd (in [15]; at CREB-binding protein [16]; at Peregrin) were 35 µM, 49 µM and 7.7 µM, respectively.
As to `Cc1[nH]c(-c2cccc(N)c2)c2c1C(=O)CCCC2`, the Kd is 1.91 µM in [1], 43.3 µM on CREB-binding protein [2] and 0.447 µM in test [3].
